# “And” between values parts separate entries of the source, which are not always exact repeats. Equal values may be shown once. Read-outs that look alike come from different tables or passages of the source.
# Columns and labels:
# S. aureus 272123 = experiment: Real-time ethidium bromide accumulation assay (efflux pump inhibition); conditions: minute 60
# E. coli AG100A [1] = experiment: as above; conditions: minute 60
# E. faecalis B3/101 = experiment: Antibiotic potentiation with vancomycin, broth microdilution; conditions: E. faecalis B3/101; compound at 16 µg/mL
# [2] = test system: NIH/3T3 mouse fibroblast cell line; experiment: Cytotoxicity assay (MTT); type: cell-based; conditions: NIH3T3, 24 h
# Protocol: The effects of increasing concentrations of compounds on cell growth were tested in 96-well flat-bottomed microtiter plates. The compounds were diluted in a volume of 100 μL of medium. Afterwards, 1 × 10^4 cells in 100 μL of medium were added to each well, with the exception of the medium control. In the case of NIH/3T3 cells, the compounds were added after seeding the cells at 37 °C overnight. The plates were incubated at 37 °C for 24 h; after the incubation period, 20 μL of MTT solution (from a 5 mg/mL stock) was added to each well. After 4 h of incubation at 37 °C, 100 μL of SDS solution (10% in 0.01 M HCl) was added to each well and the plates were incubated at 37 °C overnight. Cell growth was determined by measuring the optical density (OD) at 540 nm (ref. 630 nm) with a Multiscan EX ELISA reader. Inhibition of cell growth was determined as IC50 values, defined as the inhibitory dose that reduced the growth of the cells exposed to the tested compounds by 50%. IC50 values and the SD of triplicate experiments were calculated by using GraphPad Prism software version 5.00 for Windows with a nonlinear regression curve fit (GraphPad Software, San Diego, CA, USA; www.graphpad.com, accessed on 14 July 2022). Doxorubicin (from a 2 mg/mL stock solution, Teva Pharmaceuticals) was used as the positive control.
# E. coli AG100 [3] = experiment: Biofilm formation, crystal violet method; type: cell-based, Escherichia coli; conditions: 50 μM
# Protocol: (§1) The antibiofilm effect of the tested compounds was evaluated using the crystal violet method on E. coli AG100, E. coli AG100A, and MRSA 272123. […] CCCP was used as a positive control.
# (§2) The biofilm-forming ability of the S. aureus strains was studied in 96-well microtiter plates using TSB broth in the presence of compounds. The biofilm-forming ability of the E. coli strains was studied in 96-well microtiter plates using LB broth in the presence of the compounds. […] The final volume was 200 μL in each well. The positive control was CCCP at 50 µM. Plates were incubated for 48 h at 30 °C with gentle shaking at 100 rpm. After the incubation period, the medium was removed and the plate was washed with water to remove unattached cells. A total of 200 μL CV (0.1% [v/v]) was added to each wells and incubated for 15 min at room temperature. CV was discarded from the wells and the plate was washed with water again. Then, 200 μL of 70% ethanol was added to each well and the biofilm formation was determined by measuring the OD at 600 nm using a Multiscan EX ELISA plate reader (Thermo Labsystems, Cheshire, WA, USA). The antibiofilm effect of the compounds was expressed as the percentage (%) decrease in biofilm formation.
# E. coli AG100 [4] = experiment: Real-time ethidium bromide accumulation assay (efflux pump inhibition); conditions: minute 60
# E. faecalis ATCC 29212 = experiment: MIC determination, broth microdilution; type: cell-based; conditions: Enterococcus faecalis, ATCC29212
# Excerpt: (§3) Both reference and resistant strains used in this work were employed by our group for the screening of different families of compounds, such as xanthones and thioxanthones.
# S. aureus MRSA 272123 = experiment: MIC determination, broth microdilution; type: cell-based; conditions: Staphylococcus aureus
# Excerpt: as §3
# S. aureus 66/1 (MRSA) = experiment: MIC determination, broth microdilution; type: cell-based; conditions: Staphylococcus aureus
# Excerpt: as §3
# E. faecalis PFi/2 = experiment: MIC determination, broth microdilution; type: cell-based; conditions: Enterococcus faecalis
# Excerpt: as §3
# S. aureus ATCC 29213 = experiment: MIC determination, broth microdilution; type: cell-based; conditions: Staphylococcus aureus
# Excerpt: as §3
# E. faecalis B3/101 (VRE) = experiment: MIC determination, broth microdilution; type: cell-based; conditions: Enterococcus faecalis
# Excerpt: as §3
# E. faecalis PSi/107 = experiment: MIC determination, broth microdilution; type: cell-based; conditions: Enterococcus faecalis
# Excerpt: as §3
# phytopathogenic fungi = test system: phytopathogenic fungi; design: method as in PMID 22409377; conditions: several phytopathogenic fungi; cited from earlier work
# E. coli SA/2 = test system: E. coli SA/2; design: method as in PMID 34203998; conditions: cited from earlier work
# MRSA 272123 = experiment: Biofilm formation, crystal violet method; type: cell-based, Staphylococcus aureus
# Protocol: as §1, §2
# Staphylococcus aureus = conditions: cited from earlier work
# E. coli AG100 [5] = experiment: MIC determination, broth microdilution; type: cell-based; conditions: Escherichia coli
# Excerpt: as §3
# E. coli AG100A [6] = experiment: MIC determination, broth microdilution; type: cell-based; conditions: Escherichia coli
# Excerpt: as §3
compound,measurement,setting,value
"COC(=O)[C@H]1[C@H]2C[C@@H]3c4[nH]c5cc(OC)ccc5c4CCN3C[C@H]2C[C@@H](OC(=O)c2cc(OC)c(OC)c(OC)c2)[C@@H]1OC [RES, reserpine, reference compound]",RFI ± SD,S. aureus 272123; compound at 25 μM,0.68 ± 0.05
"CC(C)C[C@@H]1NC(=O)[C@@H](Cc2c[nH]c3ccccc23)n2c1nc1ccc(F)cc1c2=O [Compound 12a, (1S,4R)-4-((1H-indol-3-yl)methyl)-8-fluoro-1-isobutyl-1,2-dihydro-6H-pyrazino[2,1-b]quinazoline-3,6(4H)-dione]",RFI ± SD,E. coli AG100A [1]; compound at 100 μM,0.59 ± 0.03
same,MIC of vancomycin in combination with the compound,E. faecalis B3/101,256 µg/mL
same,IC50,[2],52.2 ± 0.75 µM
same,antibiofilm effect (in words),E. coli AG100 [3],reduced the amount of biofilm
same,RFI ± SD,S. aureus 272123; compound at 50 μM,0.63 ± 0.04
same,RFI ± SD,S. aureus 272123; compound at 100 μM,1.03 ± 0.02
same,RFI ± SD,E. coli AG100 [4]; compound at 50 μM,−0.17 ± 0.02
same,RFI ± SD,E. coli AG100 [4]; compound at 100 μM,2.45 ± 0.26
same,MIC,E. faecalis ATCC 29212,> 100 µM
same,MIC,S. aureus MRSA 272123,> 100 µM
same,MIC,S. aureus 66/1 (MRSA),77 µM and 32 µg/mL
same,MIC,E. faecalis PFi/2,> 100 µM
same,MIC,S. aureus ATCC 29213; ATCC29213,> 100 µM
same,MIC,E. faecalis B3/101 (VRE),77 µM and 32 µg/mL
same,MIC,E. faecalis PSi/107,> 100 µM
C[C@H]1NC(=O)[C@@H](Cc2c[nH]c3ccccc23)n2c1nc1ccccc1c2=O [fumiquinazoline G],MIC,phytopathogenic fungi,12.5 to 25 µg/mL
O=C1N[C@@H](Cc2ccc(OCc3ccccc3)cc2)c2nc3c(Cl)cc(Cl)cc3c(=O)n2[C@@H]1Cc1c[nH]c2ccccc12 [Compound 13d],RFI ± SD,E. coli AG100A [1]; compound at 50 μM,0.55 ± 0.29
same,decrease in biofilm formation,E. coli AG100 [3],61%
same,RFI ± SD,S. aureus 272123; compound at 50 μM,0.19 ± 0.08
same,RFI ± SD,E. coli AG100 [4]; compound at 50 μM,−0.01 ± 0.03
same,MIC,S. aureus MRSA 272123,> 100 µM
"CC(C)C[C@@H]1NC(=O)[C@@H](Cc2c[nH]c3ccccc23)n2c1nc1cc(F)ccc1c2=O [Compound 12b, (1S,4R)-4-((1H-indol-3-yl)methyl)-9-fluoro-1-isobutyl-1,2-dihydro-6H-pyrazino[2,1-b]quinazoline-3,6(4H)-dione]",RFI ± SD,E. coli AG100A [1]; compound at 100 μM,0.77 ± 0.17
same,IC50,[2],58 ± 1.58 µM
same,RFI ± SD,S. aureus 272123; compound at 50 μM,0.96 ± 0.07
same,RFI ± SD,E. coli AG100 [4]; compound at 50 μM,−0.07 ± 0.06
same,RFI ± SD,E. coli AG100 [4]; compound at 100 μM,1.47 ± 0.12
same,MIC,E. faecalis ATCC 29212,> 100 µM
same,MIC,S. aureus MRSA 272123,100 µM and 41.8 µg/mL
same,MIC,S. aureus 66/1 (MRSA),77 µM and 32 µg/mL
same,MIC,E. faecalis PFi/2,> 100 µM
same,MIC,S. aureus ATCC 29213; ATCC29213,77 µM
same,MIC,"S. aureus ATCC 29213; ATCC29213, value in parentheses",32 µg/mL
same,MIC,E. faecalis B3/101 (VRE),38 µM and 16 µg/mL
same,MIC,E. faecalis PSi/107,> 100 µM
"CO/N=C(\C(=O)N[C@@H]1C(=O)N2C(C(=O)O)=C(COC(C)=O)CS[C@H]12)c1csc(N)n1 [CTX, cefotaxime]",MIC,E. coli SA/2,512 µg/mL
C[C@@H]1N[C@H]2N(C1=O)c1ccccc1[C@@]2(O)C[C@@H]1C(=O)N[C@@H](C)c2nc3ccccc3c(=O)n21 [fumiquinazoline A],MIC,phytopathogenic fungi,12.5 to 25 µg/mL
CC(C)C[C@@H]1NC(=O)[C@@H](Cc2c[nH]c3ccccc23)n2c1nc1c(Cl)cc(Cl)cc1c2=O [Compound 4],decrease in biofilm formation,MRSA 272123,91%
same,RFI ± SD,E. coli AG100A [1]; compound at 50 μM,0.26 ± 0.07
same,MIC,Staphylococcus aureus; resistant strain of S. aureus,8 µg/mL
same,MIC,Staphylococcus aureus; sensitive strain of S. aureus,4 µg/mL
same,antibiofilm effect (in words),E. coli AG100 [3],reduced the amount of biofilm
same,RFI ± SD,S. aureus 272123; compound at 50 μM,1.13 ± 0.20
same,RFI ± SD,E. coli AG100 [4]; compound at 50 μM,0.01 ± 0.02
same,MIC,E. coli AG100 [5],> 100 µM
same,MIC,S. aureus MRSA 272123,> 100 µM
same,MIC,E. coli AG100A [6],> 100 µM
